Values of other authors, collected in patent publication US20080008727A1, “Compositions comprising adapalene dissolved with cyclodextrins” (GALDERMA RESEARCH & DEVELOPMENT, priority 2004, published 2008).

Solubility in water (in words): practically insoluble in water
Compound: COc1ccc(-c2ccc3cc(C(=O)O)ccc3c2)cc1C12CC3CC(CC(C3)C1)C2 [adapalene, 6-[3-(1-adamantyl)-4-methoxyphenyl]-2-naphthoic acid]
